Measurements: PMC8387736 (Drug Design, Development and Therapy, 2021)
Where two headings read alike, the source gives them in different places.

Key:
[1] = rats
CYP3As [2] = experiment: Inhibition of midazolam metabolism by avitinib in human liver microsomes; assay type: in vitro ADME
CYP1A2 [3] = target: T1, CYP1A2 (Homo sapiens, UniProt P05177); conditions: HLMs
T1 sequence (P05177 1-516): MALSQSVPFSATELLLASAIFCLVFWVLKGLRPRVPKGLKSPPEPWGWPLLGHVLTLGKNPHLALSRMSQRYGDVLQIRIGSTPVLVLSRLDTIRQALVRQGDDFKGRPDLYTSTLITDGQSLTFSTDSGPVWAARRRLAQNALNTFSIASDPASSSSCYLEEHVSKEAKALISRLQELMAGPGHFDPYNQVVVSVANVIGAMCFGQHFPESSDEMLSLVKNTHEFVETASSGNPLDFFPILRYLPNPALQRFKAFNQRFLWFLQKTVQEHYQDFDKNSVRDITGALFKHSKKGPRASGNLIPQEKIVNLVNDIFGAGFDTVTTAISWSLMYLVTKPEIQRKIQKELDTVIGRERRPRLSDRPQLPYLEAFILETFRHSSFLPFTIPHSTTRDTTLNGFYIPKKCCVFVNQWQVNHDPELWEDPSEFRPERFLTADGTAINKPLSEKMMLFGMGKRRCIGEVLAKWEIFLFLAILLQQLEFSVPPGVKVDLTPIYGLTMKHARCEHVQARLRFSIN

CYP2B6 [4] = target: T2, CYP2B6 (Homo sapiens, UniProt P20813); conditions: HLMs
T2 sequence (P20813 1-491): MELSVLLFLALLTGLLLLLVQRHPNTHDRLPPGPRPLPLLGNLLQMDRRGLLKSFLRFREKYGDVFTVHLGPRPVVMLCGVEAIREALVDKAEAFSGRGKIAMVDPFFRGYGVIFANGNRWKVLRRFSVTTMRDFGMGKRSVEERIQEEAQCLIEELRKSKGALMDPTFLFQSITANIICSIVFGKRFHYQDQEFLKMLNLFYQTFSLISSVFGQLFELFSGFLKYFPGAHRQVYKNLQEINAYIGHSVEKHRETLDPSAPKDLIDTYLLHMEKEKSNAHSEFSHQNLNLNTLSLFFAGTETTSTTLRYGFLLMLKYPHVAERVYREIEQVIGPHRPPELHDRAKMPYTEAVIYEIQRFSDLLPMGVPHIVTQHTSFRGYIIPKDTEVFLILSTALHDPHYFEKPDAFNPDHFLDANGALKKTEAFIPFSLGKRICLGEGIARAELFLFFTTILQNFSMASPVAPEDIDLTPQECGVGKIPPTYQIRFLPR

CYP2C9 [5] = target: T3, CYP2C9 (Homo sapiens, UniProt P11712); conditions: HLMs
CYP2D6 [6] = target: T4, CYP2D6 (Homo sapiens, UniProt P10635); conditions: HLMs
CYP2E1 [7] = target: T5, CYP2E1 (Homo sapiens, UniProt P05181); conditions: HLMs
CYP1A2 [8] = target: T1, CYP1A2; experiment: biochemical
CYP2B6 [9] = target: T2, CYP2B6; experiment: biochemical
CYP2C9 [10] = target: T3, CYP2C9; experiment: biochemical
CYP2D6 [11] = target: T4, CYP2D6; experiment: biochemical
CYP2E1 [12] = target: T5, CYP2E1; experiment: biochemical
cyp2b1 = target: T6, cyp2b1 (Rattus norvegicus, UniProt P00176); experiment: Inhibition of bupropion metabolism by avitinib in rat liver microsomes
T6 sequence (P00176 1-491): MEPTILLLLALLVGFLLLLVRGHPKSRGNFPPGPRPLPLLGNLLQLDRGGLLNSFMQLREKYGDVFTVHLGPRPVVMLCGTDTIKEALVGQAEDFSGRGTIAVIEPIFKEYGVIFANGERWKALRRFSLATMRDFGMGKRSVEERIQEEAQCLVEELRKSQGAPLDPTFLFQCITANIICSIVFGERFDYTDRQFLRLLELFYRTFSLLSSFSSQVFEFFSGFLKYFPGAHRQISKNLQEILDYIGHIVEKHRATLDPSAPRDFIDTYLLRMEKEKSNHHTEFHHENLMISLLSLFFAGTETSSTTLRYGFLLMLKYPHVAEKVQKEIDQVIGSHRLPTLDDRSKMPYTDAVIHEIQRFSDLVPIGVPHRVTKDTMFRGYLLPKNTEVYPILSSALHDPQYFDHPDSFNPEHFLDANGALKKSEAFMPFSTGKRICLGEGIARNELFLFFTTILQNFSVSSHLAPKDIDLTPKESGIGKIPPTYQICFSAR

cyp3as [13] = experiment: Inhibition of midazolam metabolism by avitinib in rat liver microsomes
cyp1a2 [14] = target: T7, cyp1a2 (Rattus norvegicus, UniProt P04799); experiment: Inhibition of phenacetin metabolism by avitinib in rat liver microsomes
T7 sequence (P04799 1-513): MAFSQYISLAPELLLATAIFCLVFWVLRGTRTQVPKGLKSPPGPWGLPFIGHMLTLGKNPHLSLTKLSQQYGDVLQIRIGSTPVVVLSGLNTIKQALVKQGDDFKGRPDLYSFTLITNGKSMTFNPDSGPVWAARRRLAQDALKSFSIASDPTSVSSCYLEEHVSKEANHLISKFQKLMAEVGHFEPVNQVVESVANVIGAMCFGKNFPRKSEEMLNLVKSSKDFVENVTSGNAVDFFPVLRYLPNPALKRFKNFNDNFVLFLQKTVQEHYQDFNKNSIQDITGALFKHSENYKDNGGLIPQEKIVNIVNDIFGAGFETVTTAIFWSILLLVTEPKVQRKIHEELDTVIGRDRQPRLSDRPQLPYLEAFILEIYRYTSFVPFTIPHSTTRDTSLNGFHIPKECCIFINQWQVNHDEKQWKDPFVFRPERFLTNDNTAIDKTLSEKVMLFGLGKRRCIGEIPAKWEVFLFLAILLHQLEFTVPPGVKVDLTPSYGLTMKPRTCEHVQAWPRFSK

cyp2c11 = target: T8, cyp2c11 (Rattus norvegicus, UniProt P08683); experiment: Inhibition of tolbutamide metabolism by avitinib in rat liver microsomes
T8 sequence (P08683 1-500): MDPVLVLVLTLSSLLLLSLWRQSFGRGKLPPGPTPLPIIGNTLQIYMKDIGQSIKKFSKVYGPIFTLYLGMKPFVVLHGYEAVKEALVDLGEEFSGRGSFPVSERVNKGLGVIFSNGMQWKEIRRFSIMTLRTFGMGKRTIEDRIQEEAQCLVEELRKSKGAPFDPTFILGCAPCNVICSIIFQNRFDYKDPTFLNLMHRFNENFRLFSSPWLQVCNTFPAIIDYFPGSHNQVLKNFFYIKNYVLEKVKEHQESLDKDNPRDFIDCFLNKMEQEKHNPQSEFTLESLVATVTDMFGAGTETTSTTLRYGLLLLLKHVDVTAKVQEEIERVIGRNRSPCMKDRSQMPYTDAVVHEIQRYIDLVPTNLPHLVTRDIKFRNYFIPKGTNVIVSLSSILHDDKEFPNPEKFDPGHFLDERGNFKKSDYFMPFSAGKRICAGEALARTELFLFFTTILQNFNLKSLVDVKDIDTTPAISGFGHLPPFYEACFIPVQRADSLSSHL

cyp2e1 [15] = target: cyp2e1 (Rattus norvegicus, UniProt P05182); experiment: Inhibition of chlorzoxazone metabolism by avitinib in rat liver microsomes
cyp2d1 = target: T9, cyp2d1 (Rattus norvegicus, UniProt P10633); experiment: Inhibition of dextromethorphan metabolism by avitinib in rat liver microsomes
T9 sequence (P10633 1-504): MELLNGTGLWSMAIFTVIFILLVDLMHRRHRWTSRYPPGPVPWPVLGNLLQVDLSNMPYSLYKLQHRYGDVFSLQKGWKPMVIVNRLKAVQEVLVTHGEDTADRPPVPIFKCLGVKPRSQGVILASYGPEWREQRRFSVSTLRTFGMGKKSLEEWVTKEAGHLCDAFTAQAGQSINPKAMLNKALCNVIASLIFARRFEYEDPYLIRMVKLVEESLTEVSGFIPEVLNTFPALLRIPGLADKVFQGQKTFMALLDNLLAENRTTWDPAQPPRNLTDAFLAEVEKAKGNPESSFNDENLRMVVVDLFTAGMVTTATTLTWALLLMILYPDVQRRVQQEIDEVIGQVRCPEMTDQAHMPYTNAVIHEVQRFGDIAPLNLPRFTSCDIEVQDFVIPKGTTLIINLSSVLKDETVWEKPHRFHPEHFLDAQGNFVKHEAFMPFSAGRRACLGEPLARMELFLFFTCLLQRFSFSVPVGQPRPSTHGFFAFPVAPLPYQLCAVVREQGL

[16] = avitinib 30 mg/kg multiple-doses or single-dose vs control
[17] = multiple-doses 30 mg/kg avitinib (7 days)

T4 sequence (P10635 whole entry): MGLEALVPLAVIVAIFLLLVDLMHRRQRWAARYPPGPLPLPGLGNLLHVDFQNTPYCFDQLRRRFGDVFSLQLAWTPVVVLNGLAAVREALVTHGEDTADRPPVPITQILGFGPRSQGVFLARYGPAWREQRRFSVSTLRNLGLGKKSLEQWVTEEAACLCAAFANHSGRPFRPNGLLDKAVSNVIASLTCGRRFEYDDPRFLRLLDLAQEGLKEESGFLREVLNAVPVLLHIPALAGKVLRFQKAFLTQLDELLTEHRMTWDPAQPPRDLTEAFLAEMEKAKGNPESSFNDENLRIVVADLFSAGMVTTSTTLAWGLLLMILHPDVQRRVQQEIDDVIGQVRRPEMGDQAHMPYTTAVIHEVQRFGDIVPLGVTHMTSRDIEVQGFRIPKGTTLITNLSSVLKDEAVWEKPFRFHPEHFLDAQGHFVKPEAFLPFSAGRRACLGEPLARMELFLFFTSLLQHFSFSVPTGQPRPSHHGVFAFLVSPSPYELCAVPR
T5 sequence (P05181 whole entry): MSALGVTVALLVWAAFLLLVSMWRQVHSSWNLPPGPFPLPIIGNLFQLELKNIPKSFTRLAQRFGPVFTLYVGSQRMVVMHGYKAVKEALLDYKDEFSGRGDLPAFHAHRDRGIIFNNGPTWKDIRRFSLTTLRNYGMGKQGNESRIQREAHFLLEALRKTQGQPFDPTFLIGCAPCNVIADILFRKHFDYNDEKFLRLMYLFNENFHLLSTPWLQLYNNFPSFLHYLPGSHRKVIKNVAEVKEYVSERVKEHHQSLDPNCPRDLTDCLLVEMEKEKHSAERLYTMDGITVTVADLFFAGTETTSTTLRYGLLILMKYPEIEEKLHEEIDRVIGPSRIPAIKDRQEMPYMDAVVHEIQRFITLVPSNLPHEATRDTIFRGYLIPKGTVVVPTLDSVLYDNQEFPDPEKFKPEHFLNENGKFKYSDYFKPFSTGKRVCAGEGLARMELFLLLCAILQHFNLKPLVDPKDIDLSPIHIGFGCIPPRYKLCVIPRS
Chain of cyp2e1 (P05182 whole entry): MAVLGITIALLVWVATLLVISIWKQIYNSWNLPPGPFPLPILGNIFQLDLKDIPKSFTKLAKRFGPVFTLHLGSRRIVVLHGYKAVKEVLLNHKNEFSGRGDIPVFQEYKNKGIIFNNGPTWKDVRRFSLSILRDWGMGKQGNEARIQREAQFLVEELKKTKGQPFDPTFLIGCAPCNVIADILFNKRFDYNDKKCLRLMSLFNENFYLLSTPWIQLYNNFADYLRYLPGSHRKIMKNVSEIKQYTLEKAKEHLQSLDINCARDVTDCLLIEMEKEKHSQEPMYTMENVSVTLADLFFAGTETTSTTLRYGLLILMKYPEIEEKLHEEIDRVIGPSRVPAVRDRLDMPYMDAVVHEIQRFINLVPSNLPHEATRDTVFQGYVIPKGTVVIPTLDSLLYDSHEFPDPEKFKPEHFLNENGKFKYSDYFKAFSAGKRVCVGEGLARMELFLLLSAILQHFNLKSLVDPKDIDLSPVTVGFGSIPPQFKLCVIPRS
T3 sequence (P11712 whole entry): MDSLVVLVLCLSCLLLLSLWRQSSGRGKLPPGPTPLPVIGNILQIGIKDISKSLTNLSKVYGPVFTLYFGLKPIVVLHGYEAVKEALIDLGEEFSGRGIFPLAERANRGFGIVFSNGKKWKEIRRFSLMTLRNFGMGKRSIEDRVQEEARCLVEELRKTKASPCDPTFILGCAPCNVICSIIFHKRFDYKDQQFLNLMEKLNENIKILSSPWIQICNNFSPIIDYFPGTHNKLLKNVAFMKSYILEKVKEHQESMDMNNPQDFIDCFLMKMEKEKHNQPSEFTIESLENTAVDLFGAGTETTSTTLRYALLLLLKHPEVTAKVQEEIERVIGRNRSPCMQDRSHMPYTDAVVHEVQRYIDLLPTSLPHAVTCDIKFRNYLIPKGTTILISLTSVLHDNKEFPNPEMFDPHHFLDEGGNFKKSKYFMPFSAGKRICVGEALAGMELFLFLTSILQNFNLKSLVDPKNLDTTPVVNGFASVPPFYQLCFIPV

CCOc1ccc(NC(C)=O)cc1 [Phenacetin]
change in t1/2 values after avitinib (in words) [1, 16]: no significant change | reduction of CLz/F compared with control group [1, 17]: 63.17% | reduction of Vz/F compared with control group [1, 17]: 63.09% | reduction of CLz/F compared with control group ([1]; single-dose 30 mg/kg avitinib): 39.52%

Cc1ncc2n1-c1ccc(Cl)cc1C(c1ccccc1F)=NC2 [Midazolam]
difference in Cmax after avitinib (in words) [1, 16]: No significant difference

CC(NC(C)(C)C)C(=O)c1cccc(Cl)c1 (stereo not drawn) [Bupropion]
reduction of CLz/F compared with control group [1, 17]: 57.54% | reduction of Vz/F compared with control group [1, 17]: 62.74% | reduction of CLz/F compared with control group ([1]; single-dose 30 mg/kg avitinib): 53.96% | reduction of Vz/F compared with control group ([1]; single-dose 30 mg/kg avitinib): 64.59%

CCCCNC(=O)NS(=O)(=O)c1ccc(C)cc1 [Tolbutamide]
difference in Cmax after avitinib (in words) [1, 16]: No significant difference

COc1ccc2c(c1)[C@]13CCCC[C@@H]1[C@H](C2)N(C)CC3 [Dextromethorphan]
change in Tmax values after avitinib (in words) [1, 16]: No significant changes | reduction of CLz/F compared with control group [1, 17]: 82.22% | reduction of Vz/F compared with control group [1, 17]: 73.53% | reduction of CLz/F compared with control group ([1]; single-dose 30 mg/kg avitinib): 67.78% | reduction of Vz/F compared with control group ([1]; single-dose 30 mg/kg avitinib): 69.7%

C=CC(=O)Nc1cccc(Oc2nc(Nc3ccc(N4CCN(C)CC4)c(F)c3)nc3[nH]ccc23)c1 [avitinib, Avitinib]
inhibitory effect on CYP3As (grade in words) (CYP3As [2]; HLMs): weak | IC50 at 30 min (CYP3As [2]; human, human liver microsomes, probe midazolam (5 μM)): 59.6 µM | inhibitory effect on CYP1A2 (grade in words) (CYP1A2 [3]): weak | inhibitory effect on CYP2B6 (grade in words) (CYP2B6 [4]): weak | inhibitory effect on CYP2C9 (grade in words) (CYP2C9 [5]): moderate | inhibitory effect on CYP2D6 (grade in words) (CYP2D6 [6]): weak | inhibitory effect on CYP2E1 (grade in words) (CYP2E1 [7]): weak | IC50 (CYP1A2 [8]): 48.4 µM | IC50 (CYP2B6 [9]): 22.6 µM | IC50 (CYP2C9 [10]): 6.91 µM | IC50 (CYP2D6 [11]): 56.6 µM | IC50 (CYP2E1 [12]): 57.1 µM | IC50 (cyp2b1): 6.39 µM | inhibitory effect on cyp2b1 (grade in words) (cyp2b1; RLMs): moderate | inhibitory effect on cyp3as (grade in words) (cyp3as [13]; RLMs): weak | IC50 at 30 min (cyp3as [13]; male, Sprague-Dawley, rat, rat liver microsomes, probe midazolam (5 μM)): 27.6 µM | IC50 (cyp1a2 [14]): 15.8 µM | inhibitory effect on cyp1a2 (grade in words) (cyp1a2 [14]; RLMs): weak | IC50 (cyp2c11): 42.2 µM | inhibitory effect on cyp2c11 (grade in words) (cyp2c11; RLMs): weak | IC50 (cyp2e1 [15]): 23.2 µM | inhibitory effect on cyp2e1 (grade in words) (cyp2e1 [15]; RLMs): weak | IC50 (cyp2d1): 44.4 µM | inhibitory effect on cyp2d1 (grade in words) (cyp2d1; RLMs): weak
